pEC50: −log10 of the molar value. Activity calls are given as the source filed them. The rule behind the calls is not given here.
Experiments:
Mus musculus [1] = test: Antidiabetic activity in normal ICR mouse assessed as reduction in blood glucose level at 20 mg/kg, po administered 30 mins before oral glucose load by OGTT assay; format: functional, organism-based
[2] = Half life in 12 hrs fasted Sprague-Dawley rat at 3 mg/kg, po administered as single dose measured up to 24 hrs by LC-PDA-MS/MS analysis; format: ADME, organism-based; settings: in vivo
[3] = Cmax in 12 hrs fasted Sprague-Dawley rat at 3 mg/kg, po administered as single dose measured up to 24 hrs by LC-PDA-MS/MS analysis; format: ADME, organism-based; set-up: dose 3 mg/kg, route oral; settings: in vivo
Mus musculus [4] = test: Antidiabetic activity in normal ICR mouse assessed as reduction in blood glucose AUC (0 to 120 mins) at 20 mg/kg, po administered 30 mins before oral glucose load by OGTT assay; format: functional, organism-based
[5] = Apparent volume of distribution during terminal phase in 12 hrs fasted Sprague-Dawley rat at 3 mg/kg, po administered as single dose measured up to 24 hrs by LC-PDA-MS/MS analysis; format: ADME, organism-based; settings: in vivo
[6] = AUC (0 to 24 hrs) in 12 hrs fasted Sprague-Dawley rat at 3 mg/kg, po administered as single dose measured up to 24 hrs by LC-PDA-MS/MS analysis; format: ADME, organism-based; set-up: time < 24 hr, dose 3 mg/kg, route oral; settings: in vivo
[7] = biological target: Free fatty acid receptor 1 (Homo sapiens, UniProt O14842); test: Agonist activity at human FFA1 receptor expressed in CHO cells assessed as increase in intracellular calcium levels measured for 1 hr by Fluo 4-AM dye based FLIPR assay; format: functional, cell-based
Mus musculus [8] = test: Induction of hypoglycemia in fasting normal ICR mouse assessed as reduction in blood glucose level at 15 mg/kg, po measured up to 3 hrs post dose; format: organism-based; settings: in vivo
Mus musculus [9] = test: Induction of hypoglycemia in fasting normal ICR mouse assessed as reduction in blood glucose level at 60 mg/kg, po measured up to 3 hrs post dose; format: organism-based; settings: in vivo

Chain of Free fatty acid receptor 1 (O14842 whole entry): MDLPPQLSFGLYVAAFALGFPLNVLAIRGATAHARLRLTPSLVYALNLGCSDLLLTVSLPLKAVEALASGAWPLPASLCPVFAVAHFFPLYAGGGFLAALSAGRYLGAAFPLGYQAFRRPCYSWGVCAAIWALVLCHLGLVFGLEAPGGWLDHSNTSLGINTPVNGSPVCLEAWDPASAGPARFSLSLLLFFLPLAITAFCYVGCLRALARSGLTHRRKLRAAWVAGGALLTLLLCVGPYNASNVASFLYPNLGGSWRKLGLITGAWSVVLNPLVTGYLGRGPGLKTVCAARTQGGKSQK

**Q.** Which Activity (Mus musculus [1]) does the source give for `Cc1noc(C)c1-c1cccc(COc2ccc(CCC(=O)O)c(F)c2)c1` here?
**A.** inactive

**Q.** What about the Activity (Mus musculus [1]; tested as the 2H-labelled form) of the same compound?
**A.** Active

**Q.** What about the t1/2 [2] of the same compound?
**A.** 1.75 h

**Q.** What about the Cmax [3] of the same compound?
**A.** 1730 ng/mL

**Q.** And the Activity (Mus musculus [4])?
**A.** inactive

**Q.** And the Activity (Mus musculus [4]; tested as the 2H-labelled form)?
**A.** Active

**Q.** What about the Vz/F [5] of the same compound?
**A.** 0.074 L/kg

**Q.** And the AUC [6]?
**A.** 14063.25 ng·h/mL

**Q.** And the pEC50 [7]?
**A.** 7.49

**Q.** For `[2H]C([2H])(Cc1ccc(OCc2cccc(-c3c(C)noc3C)c2)cc1)C(=O)O`, which t1/2 [2] is on record?
**A.** 2.58 h

**Q.** What about the Cmax [3] of the same compound?
**A.** 2360 ng/mL

**Q.** What about the Vz/F [5] of the same compound?
**A.** 0.057 L/kg

**Q.** What about the AUC [6] of the same compound?
**A.** 31694.16 ng·h/mL

**Q.** And the pEC50 [7]?
**A.** 7.54

**Q.** With `COc1ccc(Cl)cc1C(=O)NCCc1ccc(S(=O)(=O)NC(=O)NC2CCCCC2)cc1` [GLYBURIDE] as the compound, how does the Activity (Mus musculus [8]) read?
**A.** Toxic

**Q.** For `[2H]C([2H])(Cc1ccc(OCc2cccc(-c3c(C)noc3C)c2)cc1F)C(=O)O`, which t1/2 [2] is on record?
**A.** 3.14 h

**Q.** And the Cmax [3]?
**A.** 2910 ng/mL

**Q.** What about the Vz/F [5] of the same compound?
**A.** 0.049 L/kg

**Q.** What about the AUC [6] of the same compound?
**A.** 46492.43 ng·h/mL

**Q.** And the pEC50 [7]?
**A.** 7.43

**Q.** What about the Activity (Mus musculus [9]) of the same compound?
**A.** Non-Toxic

Reference: ChEMBL document CHEMBL4339214, “Design, synthesis and biological activity of deuterium-based FFA1 agonists with improved pharmacokinetic profiles” (Bioorg Med Chem Lett, 2019)
